Entries after “also recorded” stand apart in the source; their conditions may differ. Where a name gives a salt, the structure may show the parent alone. Read-outs that look alike come from different tables or passages of the source.
Experiments:
sciatic nerve [1] = experiment: Rat sciatic nerve block: nociception (nocifensive withdrawal reflex and vocalization to skin pinch); type: in vivo; conditions: for dose-response of block, in words: 0.0625, 0.125 and 0.25%, injection followed by capsaicin; for kind of blockade (nociceptive vs motor), in words: local anesthetic with injection of capsaicin 0.05% 10 minutes later; for effect of vehicle on block, in words: vehicle (10% ethanol, 10% Tween 80, 80% saline) injected 10 min after the drug
sciatic nerve [2] = experiment: Rat sciatic nerve block: motor function (extensor postural thrust); type: in vivo
Description: The rats were assigned to treatments via block randomization with a block size of 8. All rats were anesthetized by inhalation of 1-2% of sevoflurane (Abbott Laboratory, North Chicago, Ill.) until no withdrawal to pinch of the leg occurred (by forceps). […] All drugs were given alone or co-administered with capsaicin at 0.05%/1.6 mM. Co-administration of capsaicin was performed either 10 minutes after the first drug or simultaneously (e.g., mixed with the local anesthetic). The vehicle control group received local anesthetic followed by injection of vehicle 10 minutes later. Capsaicin was also injected alone as was normal saline. Each drug was injected was injected in a volume of 0.2 mL. The experimenter was blinded to the drug used, but was not blinded to the administration of a second drug 10 minutes later which was either capsaicin or vehicle alone.
The effects of local anesthetics and capsaicin on motor function and nociception were evaluated. Rats were examined before injection for baseline functions, and at 10, 20, 30, 60, and 90 minutes and 2, 3, 6, 12, 24, and 36 hours after drug administration. Motor function was assayed by holding the rat upright with the control hind limb extended so that the distal metatarsus and toes of the target leg supported the animal's weight; the extensor postural thrust was recorded as the force (in grams) applied by each of the two hind limbs to a digital platform balance (Ohaus Lopro; Fisher Scientific, Florham Park, N.J.). The reduction in this force, representing reduced extensor-muscle contraction caused by motor block, was calculated as a percentage of the control force (pre-injection control value=145 to 165 g). The percent reduction in force was assigned a ‘range’ score: 0=no block (or baseline); 1=minimal block, force between the pre-injection control value of 100% and 50%; 2=moderate block, force between 50% of the pre-injection control value and 20 g (˜20 g represented the approximate weight of the flaccid limb); 3=complete block, force 20 g or less.
For both nociceptive and motor assessment, the examination was repeated three times at each time point and reported as an average of the three exams.

skin = experiment: Skin appearance / irritation after transdermal patch; type: in vivo, rat
Description: (§1) It was hypothesized that the combined application of amitriptyline and capsaicin as a transdermal patch will produce prolonged cutaneous analgesia compared to amitriptyline alone. Male Sprague-Dawley rats (weights 250-300 g) were assigned to five treatment groups (n=6-8). Transdermal patches containing amitriptyline with different concentrations of capsaicin were applied to the rats' shaved backs: 2.5% amitriptyline alone (control group) and in combinations with 0.05%, 0.15%, 1, and 8% capsaicin for 3 hours. Behavioral testing for cutaneous nociception was conducted before and after patch removal, using the cutaneous trunci muscle reflex (CTMR). In addition, skin appearance was assessed to determine irritation by the formulation.

[3] = tested on: cutaneous trunci muscle reflex; type: in vivo, rat
Description: as §1

sciatic nerve [4] = conditions: followed by capsaicin; cited from earlier work
[5] = 0.0625% drug + 0.05% capsaicin (10 min apart)
[6] = 0.0625% drug alone, 0.2 mL at sciatic notch
[7] = 0.125% drug + 0.05% capsaicin (10 min apart)
[8] = 0.125% drug + 0.05% capsaicin (mixed)
[9] = 0.125% drug + vehicle (10 min apart)
[10] = 0.25% drug + 0.05% capsaicin (10 min apart)
[11] = 2.5% amitriptyline patch alone, applied 3 hours
[12] = 0.125% solution administered alone
[13] = 2% drug + 0.05% capsaicin (10 min apart)
[14] = 2% drug + 0.05% capsaicin (mixed)
[15] = 2% drug + vehicle (10 min apart)
[16] = 0.25% drug + 0.05% capsaicin (mixed)
[17] = 0.25% drug + vehicle (10 min apart)

## COc1cc(CNC(=O)CCCCC=CC(C)C)ccc1O [capsaicin, 8-methyl-N-vanillyl-6-nonenamide]
Sciatic nerve [1]; injected alone, 0.05%, 0.2 mL
  motor and nociceptive block, in words: no detectable block

## CN(C)CCC=C1c2ccccc2CCc2ccccc21 [Amitriptyline, amitriptyline hydrochloride]
Sciatic nerve [2]; [5]
  Complete recovery time, Motor, Mean: 1.38 h
Sciatic nerve [2]; [6]
  Complete recovery time, Motor, Mean: 0.44 h
Sciatic nerve [2]; [7]
  Complete recovery time, Motor, Mean: 3.25 h
Sciatic nerve [2]; [8]
  Complete recovery time, Motor, Mean: 0.44 h
Sciatic nerve [2]; [9]
  Complete recovery time, Motor, Mean: 2.62 h
Sciatic nerve [2]; 0.125% drug alone
  Complete recovery time, Motor, Mean: 3.44 h
Sciatic nerve [2]; [10]
  Complete recovery time, Motor, Mean: 2.31 h
Sciatic nerve [2]; 0.25% drug alone
  Complete recovery time, Motor, Mean: 9.13 h
Sciatic nerve [2]; 0.25%, followed by capsaicin
  effect on motor block, in words: motor block decreased
Sciatic nerve [2]; capsaicin given simultaneously with the local anesthetic, hydrochloride
  effect on motor block, in words: significantly decreased the motor blockade; also recorded: decreased the absolute duration of motor block
skin; 2.5% amitriptyline patch alone
  skin effects, in words: causes toxic effects in skin
skin; amitriptyline 2.5% with capsaicin 8% patch
  skin effects, in words: no adverse skin reactions
Sciatic nerve [1]; [5]
  Complete recovery time, Nociception, Mean: 2.88 h
Sciatic nerve [1]; [6]
  Complete recovery time, Nociception, Mean: 0.25 h
Sciatic nerve [1]
  dose-response of block, in words: dose-dependent and predominantly nociceptive block
Sciatic nerve [1]; [7]
  Complete recovery time, Nociception, Mean: 17.25 h
Sciatic nerve [1]; [8]
  Complete recovery time, Nociception, Mean: 2.69 h
Sciatic nerve [1]; [9]
  Complete recovery time, Nociception, Mean: 2.13 h
Sciatic nerve [1]; 0.125% drug alone
  Complete recovery time, Nociception, Mean: 4.56 h
Sciatic nerve [1]; [10]
  Complete recovery time, Nociception, Mean: 33.37 h
Sciatic nerve [1]; 0.25% drug alone
  Complete recovery time, Nociception, Mean: 11.25 h
Sciatic nerve [1]; hydrochloride
  kind of blockade (nociceptive vs motor), in words: predominantly nociceptive-specific blockade; also recorded: large differential block
[3]; [11]
  complete block to pinprick (duration): 4.5 h
  time to full recovery: 96 h
[3]; 3 h
  complete block to pinprick (duration): 6 to 9 h
  time to full recovery: 216 h

## C[N+](C)(C)CCC=C1c2ccccc2CCc2ccccc21 [N-Methyl Amitriptyline, N-methyl amitriptyline]
Sciatic nerve [2]; [5]
  Complete recovery time, Motor, Mean: 0.06 h
Sciatic nerve [2]; [6]
  Complete recovery time, Motor, Mean: 0.12 h
Sciatic nerve [2]; [7]
  Complete recovery time, Motor, Mean: 0.04 h
Sciatic nerve [2]; [8]
  Complete recovery time, Motor, Mean: 0.12 h
Sciatic nerve [2]; [9]
  Complete recovery time, Motor, Mean: 0.38 h
Sciatic nerve [2]; 0.125% drug alone
  Complete recovery time, Motor, Mean: 0.31 h
Sciatic nerve [2]; [12]
  duration of motor blockade: < 1 h
Sciatic nerve [2]; [10]
  Complete recovery time, Motor, Mean: 1.81 h
Sciatic nerve [2]; 0.25% drug alone
  Complete recovery time, Motor, Mean: 1.44 h
Sciatic nerve [1]; [5]
  Complete recovery time, Nociception, Mean: 0.13 h
Sciatic nerve [1]; [6]
  Complete recovery time, Nociception, Mean: 0.00 h
Sciatic nerve [1]
  dose-response of block, in words: dose-dependent and predominantly nociceptive block
  kind of blockade (nociceptive vs motor), in words: predominantly nociceptive-specific blockade
Sciatic nerve [1]; 0.125% + capsaicin 0.05%, 10 minutes after or injected simultaneously
  kind of blockade, in words: very prolonged sensory-selective block
Sciatic nerve [1]; [7]
  Complete recovery time, Nociception, Mean: 11.63 h
Sciatic nerve [1]; [8]
  Complete recovery time, Nociception, Mean: 10.87 h
Sciatic nerve [1]; [9]
  Complete recovery time, Nociception, Mean: 0.81 h
Sciatic nerve [1]; 0.125% drug alone
  Complete recovery time, Nociception, Mean: 0.67 h
Sciatic nerve [1]; [12]
  duration of nociceptive blockade: < 1 h
Sciatic nerve [1]; [10]
  Complete recovery time, Nociception, Mean: 33.00 h
Sciatic nerve [1]; 0.25% drug alone
  Complete recovery time, Nociception, Mean: 3.63 h

## CC[N+](CC)(CC)CC(=O)Nc1c(C)cccc1C [QX-314]
Sciatic nerve [4]
  kind of sciatic nerve block, in words: nociceptor-selective sciatic nerve block

## CCN(CC)CC(=O)Nc1c(C)cccc1C [Lidocaine, lidocaine hydrochloride]
Sciatic nerve [2]; [13]
  Complete recovery time, Motor, Mean: 1.69 h
Sciatic nerve [2]; [14]
  Complete recovery time, Motor, Mean: 1.50 h
Sciatic nerve [2]; [15]
  Complete recovery time, Motor, Mean: 2.00 h
Sciatic nerve [2]; 2% drug alone
  Complete recovery time, Motor, Mean: 1.13 h
Sciatic nerve [1]; [13]
  Complete recovery time, Nociception, Mean: 7.62 h
Sciatic nerve [1]; [14]
  Complete recovery time, Nociception, Mean: 3.00 h
Sciatic nerve [1]; [15]
  Complete recovery time, Nociception, Mean: 2.12 h
Sciatic nerve [1]; 2% drug alone
  Complete recovery time, Nociception, Mean: 1.25 h
Sciatic nerve [1]; 2% given alone
  motor and nociceptive block, in words: complete but relatively short-lasting motor and nociceptive block
Sciatic nerve [1]; hydrochloride
  kind of blockade (nociceptive vs motor), in words: smallest differential block among all drug combinations
Sciatic nerve [1]; listed as lidocaine, hydrochloride
  kind of blockade (nociceptive vs motor), in words: predominantly nociceptive-specific blockade
Sciatic nerve [1]
  effect of vehicle on block, in words: intensification of both motor and nociceptive block

## CCCCN1CCCCC1C(=O)Nc1c(C)cccc1C (stereo not shown) [Bupivacaine, bupivacaine hydrochloride]
Sciatic nerve [2]; [10]
  Complete recovery time, Motor, Mean: 2.31 h
Sciatic nerve [2]; [16]
  Complete recovery time, Motor, Mean: 1.56 h
Sciatic nerve [2]; [17]
  Complete recovery time, Motor, Mean: 2.87 h
Sciatic nerve [2]; 0.25% drug alone
  Complete recovery time, Motor, Mean: 2.31 h
Sciatic nerve [2]; capsaicin given simultaneously with the local anesthetic
  effect on motor block, in words: decreased the absolute duration of motor block
Sciatic nerve [1]; [10]
  Complete recovery time, Nociception, Mean: 23.14 h
Sciatic nerve [1]; [16]
  Complete recovery time, Nociception, Mean: 1.63 h
Sciatic nerve [1]; [17]
  Complete recovery time, Nociception, Mean: 4.75 h
Sciatic nerve [1]; 0.25% drug alone
  Complete recovery time, Nociception, Mean: 2.50 h
Sciatic nerve [1]; 0.25%, followed by capsaicin or vehicle 10 minutes later
  nociceptive vs motor blockade, in words: significantly increased the nociceptive blockade over motor blockade
Sciatic nerve [1]
  kind of blockade (nociceptive vs motor), in words: predominantly nociceptive-specific blockade
  effect of vehicle on block, in words: intensification of both motor and nociceptive block
